Square brackets hold non-standard residues; d marks the D form. Ends that are not written are not given here. pGlu = O=C1CC[C@@H](C(=O)O)N1; Nle = CCCC[C@H](N)C(=O)O
Each substance was assayed on bombesin receptor (assay: competitive binding assay, 125I-Bombesin, rat brain membranes). Conditions: not given.
Experimental: Rat brain membranes were utilized as the source of bombesin receptor. The competitive binding assay was performed using a procedure as described by Moody T W, Perk C B, Rivier J, Brown, M R. (Proc Natl Acad Sci USA. 75:5372-5376, […]) and adapted to a 96 well format. An aliquot of membranes taken in assay buffer (50 mM Tris and HCl, pH 7.4 containing 1 mg/mL BSA and 2 μg/mL bacitracin) was incubated with 0.01 nM of ^125I-Bombesin with or without varying concentrations of the test compound for 60 min at 4° C. The incubation was terminated by rapid filtration of the assay mixture, followed by washing the filters with ice-cold buffer. The filters were dried and counted in a gamma counter for retained radioactivity. Non-specific binding was measured by including 1 μM Bombesin in the assay tube. The assay was performed in triplicate and results calculated to determine percentage inhibition of the ^125I-Bombesin binding to its receptors by a test compound. The parent polypeptide is shown in Table 6, with metallopeptides having Cys inserted as shown.

Substance | binding to bombesin receptor, in words
D-Phe-Gln-Trp-Ala-Val-Cys-NH2 ([dF]QWAVC-NH2; also: oxorhenium(V) N3S1 chelate via Cys (Re(V)=O)) [11-3] | high negative percent inhibition
D-Phe-Gln-Trp-Cys-Ala-Val-Gly-His-Leu-Leu-NH2 ([dF]QWCAVGHLL-NH2; also: rhenium complex (oxorhenium(V) N3S1 chelate via Cys)) [8-7] | least activity
D-Phe-Gln-Trp-Ala-Cys-Gly-His-Leu-Leu-NH2 ([dF]QWACGHLL-NH2; also: oxorhenium(V) N3S1 tetradentate complex via Cys) [9-5] | least activity

Same assay, conditions: inhibition of 0.01 nM 125I-Bombesin binding; rat brain membranes; test concentration not given

Substance | % Inhibition [%]
Gln-Trp-Ala-Val-Cys-His-Leu-Leu-NH2 [11-4] (QWAVCHLL-NH2; not fully specified (bridges); printed as Gln-Trp-Ala-Val-Cys-His-Leu-Leu-NH2; also: oxorhenium(V) N3S1 chelate (Re(V)=O)) | 25
D-Phe-Gln-Trp-Ala-Val-D-Cys-His-Leu-Leu-NH2 (chain 1 [dF]QWAV; chain 2 [dC]HLL-NH2; not fully specified (bridges); also: chain 2 continues chain 1 in one peptide (Val-D-Cys bond), Re-peptide (rhenium complex)) [10-2] | 64
Trp-Ala-Val-Cys-His-Leu-NH2 (WAVCHL-NH2; not fully specified (bridges); printed as Trp-Ala-Val-Cys-His-Leu-NH2; also: oxorhenium(V) N3S1 chelate (Re=O) with Cys) [11-8] | 13
D-Phe-Gln-Trp-Ala-Val-Cys-NH2 ([dF]QWAVC-NH2; also: oxorhenium(V) N3S1 chelate via Cys (Re(V)=O)) [11-3] | −81
Pyr-Gln-Arg-Leu-Gly-Cys-Asn-Gln-Trp-Ala-Val-Gly-His-Leu-Nle-NH2 ([pGlu]QRLGCNQWAVGHL[Nle]-NH2; numbers in words are those of the source; also: rhenium complex (oxorhenium(V) N3S1 tetradentate chelate via Re=O core)) [6-10] | 93
Pyr-Gln-Arg-Leu-Gly-Asn-Gln-Trp-Ala-Cys-Gly-His-Leu-Nle-NH2 (QRLGNQWACGHL; N-terminal pyroglutamate; C-terminal Nle-amide; printed: Gln-Arg-Leu-Gly-Asn-Gln-Trp-Ala-Cys-Gly-His-Leu-) [7-5] | 61
D-Phe-Gln-Trp-Ala-Val-Cys-His-Leu-Leu-NH2 ([dF]QWAVCHLL-NH2; also: Re metal complex (oxorhenium(V) N3S1 chelate via Cys)) [9-4] | 75
D-Phe-Gln-Cys-Trp-Ala-Val-Gly-His-Leu-Leu-NH2 ([dF]QCWAVGHLL-NH2; also: oxorhenium(V) N3S1 tetradentate complex via Cys) [8-8] | 62
D-Phe-Gln-Trp-Cys-Ala-Val-Gly-His-Leu-Leu-NH2 ([dF]QWCAVGHLL-NH2; also: rhenium complex (oxorhenium(V) N3S1 chelate via Cys)) [8-7] | 8
Pyr-Gln-Arg-Leu-Gly-Asn-Gln-Trp-Cys-Val-Gly-His-Leu-Nle-NH2 (QRLGNQWCVGHL; N-terminal pyroglutamate; C-terminal Nle-amide; printed: Gln-Arg-Leu-Gly-Asn-Gln-Trp-Cys-Val-Gly-His-Leu-) [7-6] | 91
Pyr-Gln-Arg-Leu-Gly-Asn-Gln-Trp-Ala-Val-Gly-Cys-His-Leu-Nle-NH2 ([pGlu]QRLGNQWAVGCHL[Nle]-NH2; numbers in words are those of the source; also: oxorhenium(V) N3S1 chelate (Re=O) with Cys) [6-4] | 70
D-Phe-Gln-Trp-Ala-Val-Cys-His-Leu-NH2 ([dF]QWAVCHL-NH2; also: oxorhenium(V) N3S1 chelate via Cys (Re(V)=O)) [11-1] | 98
D-Phe-Gln-Trp-Ala-Val-Gly-Cys-His-Leu-Leu-NH2 ([dF]QWAVGCHLL-NH2; also: oxorhenium(V) N3S1 chelate via Cys (Re(V)=O)) [8-4] | 59
Pyr-Gln-Arg-Leu-Gly-Asn-Gln-Trp-Ala-Val-Gly-His-Cys-Leu-Nle-NH2 ([pGlu]QRLGNQWAVGHCL[Nle]-NH2; numbers in words are those of the source; also: rhenium complex (oxorhenium(V) N3S1 chelate via Cys)) [6-3] | 71
Gln-Trp-Ala-Val-Cys-His-Leu-Leu-NH2 [11-7] (QWAVCHLL-NH2; not fully specified (bridges); printed as Gln-Trp-Ala-Val-Cys-His-Leu-Leu-NH2; also: oxorhenium(V) N3S1 chelate (Re(V)=O)) | 5
D-Phe-Gln-D-Trp-Ala-Val-Cys-His-Leu-Leu-NH2 ([dF]Q[dW]AVCHLL-NH2; numbers in words are those of the source; also: oxorhenium(V) N3S1 tetradentate complex via Cys) [10-5] | 6
D-Phe-Gln-Trp-Cys-Val-His-Leu-Leu-NH2 ([dF]QWCVHLL-NH2; not fully specified (bridges); printed as D-Phe-Gln-Trp-Cys-Val-His-Leu-Leu-NH2; also: oxorhenium(V) N3S1 chelate complex (Re=O)) [12-6] | 10

Substance | % Inhibition [%]
Pyr-Gln-Arg-Leu-Gly-Asn-Gln-Trp-Ala-Val-Gly-His-Cys-Nle-NH2 (QRLGNQWAVGHC; N-term pyroglutamate; Nle-NH2; rhenium complex; printed: Gln-Arg-Leu-Gly-Asn-Gln-Trp-Ala-Val-Gly-His-Cys-) [7-2] | 66
D-Phe-Gln-Trp-Ala-Val-Gly-His-Cys-Leu-Leu-NH2 ([dF]QWAVGHCLL-NH2; also: rhenium complex (oxorhenium(V) N3S1 chelate via Cys)) [8-3] | 49
Ac-Ala-Gln-Cys-Arg-Leu-Gly-Asn-Gln-Trp-Ala-Val-Gly-His-Leu-Nle-NH2 (Ac-AQCRLGNQWAVGHL[Nle]-NH2; also: oxorhenium(V) N3S1 tetradentate complex via Cys) [6-13] | 99
D-Phe-Gln-Trp-Ala-Val-Gly-Cys-Leu-Leu-NH2 ([dF]QWAVGCLL-NH2; also: oxorhenium(V) N3S1 chelate via Cys (Re(V)=O)) [9-3] | 70
D-Phe-Gln-Trp-Ala-Val-Cys-Gly-His-Leu-Leu-NH2 ([dF]QWAVCGHLL-NH2; also: oxorhenium(V) N3S1 chelate via Cys (Re(V)=O)) [8-5] | 70
Pyr-Gln-Arg-Leu-Gly-Asn-Gln-Trp-Ala-Cys-Val-Gly-His-Leu-Nle-NH2 ([pGlu]QRLGNQWACVGHL[Nle]-NH2; numbers in words are those of the source; also: oxorhenium(V) N3S1 chelate (Re=O) with Cys) [6-6] | 83
[dF]QWA[dV]CHLL-NH2 [10-3] | 7
D-Phe-Gln-Trp-Ala-Val-Gly-His-Leu-Cys-Leu-NH2 ([dF]QWAVGHLCL-NH2; also: rhenium complex (oxorhenium(V) N3S1 chelate via Cys)) [8-2] | 75
D-Phe-Gln-Trp-Val-Cys-His-Leu-Leu-NH2 ([dF]QWVCHLL-NH2; also: oxorhenium(V) N3S1 chelate complex (Re=O)) [12-4] | 5
Pyr-Gln-Arg-Leu-Gly-Asn-Cys-Gln-Trp-Ala-Val-Gly-His-Leu-Nle-NH2 ([pGlu]QRLGNCQWAVGHL[Nle]-NH2; numbers in words are those of the source; also: oxorhenium(V) N3S1 chelate (Re(V)=O)) [6-9] | 91
D-Phe-Gln-Trp-Ala-Cys-Gly-His-Leu-Leu-NH2 ([dF]QWACGHLL-NH2; also: oxorhenium(V) N3S1 tetradentate complex via Cys) [9-5] | 17
Ala-Val-Cys-NH2 (not fully specified (bridges); printed as Ala-Val-Cys-NH2; also: oxorhenium(V) N3S1 chelate (Re(V)=O)) [11-15] | 4
Ala-Val-Cys-His-Leu-NH2 (AVCHL-NH2; not fully specified (bridges); printed as Ala-Val-Cys-His-Leu-NH2; also: oxorhenium(V) N3S1 chelate (Re(V)=O)) [11-9] | 7
Pyr-Gln-Arg-Cys-Leu-Gly-Asn-Gln-Trp-Ala-Val-Gly-His-Leu-Nle-NH2 ([pGlu]QRCLGNQWAVGHL[Nle]-NH2; numbers in words are those of the source; also: oxorhenium(V) N3S1 chelate (Re(V)=O)) [6-12] | 97
Pyr-Gln-Arg-Leu-Gly-Asn-Gln-Trp-Ala-Val-Cys-Gly-His-Leu-Nle-NH2 ([pGlu]QRLGNQWAVCGHL[Nle]-NH2; numbers in words are those of the source; also: oxorhenium(V) N3S1 chelate (Re=O) with Cys) [6-5] | 67
Pyr-Gln-Arg-Leu-Gly-Asn-Gln-Trp-Ala-Val-Gly-His-Leu-Nle-Cys-NH2 ([pGlu]QRLGNQWAVGHL[Nle]C-NH2; numbers in words are those of the source; also: rhenium complex (oxorhenium(V) N3S1 tetradentate chelate via Re=O core)) [6-1] | 82
